According to patent US20080226718A1, “Indole and Azaindole Derivatives For the Treatment of Inflammatory and Autoimmune Diseases” (Brane Discovery S.r.l, priority 2005, published 2008):

Assays:
[1] = tested on: encephalitogenic lymphocytes; assay: Spontaneous adhesion of encephalitogenic T cells on purified ICAM-1; format: cell-based, SJL mice; conditions: Mus musculus, Lymphocyte, 1 h; for inhibition at 5 µM: [cpd] 5 μM, read-out: Inhibition of Spontaneous Adhesion in encephalitogenic lymphocytes (% of control/non-treated cells) ICAM-1; for inhibition at 10 µM: [cpd] 10 μM; for inhibition at 10 µM / inhibition at 50 µM: read-out: Inhibition of Spontaneous Adhesion in encephalitogenic lymphocytes (% of control/non-treated cells) ICAM-1 (converted); for inhibition at 50 µM: [cpd] 50 μM
Procedure: Spontaneous adhesion of encephalitogenic lymphocytes was measured in adhesion assays on purified ICAM-1 and VCAM-1 as previously described (Constantin G. et al., J. Immunol. 162, 1144-1149, 1999). Autoreactive T cells were obtained from SJL mice immunized with PLP139-151 as described (Piccio L. et al., J. Immunol. 168, 1940-1949, 2002). Lymphocytes were treated with test compound at concentrations between 5-100 μM for 1 h, while control/untreated cells were treated with vehicle (DMSO). Results are expressed as percentage of inhibition over control (=100%) ±S.D and are the mean of three-four experiments.
ICAM-1 and VCAM-1 are adhesion molecules from the family of immunoglobulins and control the migration of lymphocytes through the endothelium during inflammatory responses. Encephalitogenic T cells are activated lymphocytes displaying spontaneous adhesion on ICAM-1 and VCAM-1 and have increased migration capacities in inflammation sites. Spontaneous adhesion of encephalitogenic lymphocytes was measured in adhesion assays on purified ICAM-1 and VCAM-1 as described in the method.

lymphocytes [2] = assay: Chemotaxis assay, lymphocytes (MIP-3β); format: cell-based; conditions: Homo sapiens, Lymphocyte, MIP-3β 100 nM, 4 h; for inhibition at 10 µM: [cpd] 10 μM, read-out: Inhibition of Chemotaxis (%) Lymphocytes (MIP3-β); for inhibition at 25 µM: [cpd] 25 μM; for inhibition at 25 µM / inhibition at 50 µM: read-out: Inhibition of Chemotaxis (%) Lymphocytes (MIP3-β) (converted); for inhibition at 50 µM: [cpd] 50 μM
Procedure: (§1) PMNs and monocytes migration was assessed using 1 or 3-μm pore size transwells (Bio-Coat Becton-Dickinson), while lymphocytes by using 5-elm pore size transwells.
(§2) Cells were in RPMI1640, containing 10% heat-inactivated Fetal Calf Serum (FCS) and 20 mM HEPES, pH 7.3, at 2×10^6/ml. 100 μl of cell suspension were added to the top well, and 600 μl of medium, containing chemoattractants and test compound, were added to the bottom well. Migration was evaluated after 2 h for PMNs and monocytes and after 4 h for lymphocytes. fMLP 10 nM (PMNs and monocytes) and MIP-3β 100 nM (lymphocytes) were utilized as chemoattractants. After fixation with 1.5% glutaraldehyde, migrated cells were counted by fluorescence-activated celli sorting using polystyrene beads (Polyscience) as an internal standard (Campbell J. J. et al. J. Cell. Biol. 134, 255-266, 1996; Laudanna C. et al. J. Biol. Chem. 273,46, 30306-30315, 1998).
(§3) Results are expressed as percentage of inhibition over control (=100%), and are the mean of three experiments.

PMNs [3] = assay: Chemotaxis assay, PMNs (fMLP); format: cell-based; conditions: Homo sapiens, fMLP 10 nM, 2 h; for inhibition at 10 µM: [cpd] 10 μM; for inhibition at 25 µM: [cpd] 25 μM; for inhibition at 50 µM: [cpd] 50 μM
Procedure: as §1, §2, §3

PMNs [4] = assay: Chemokine-induced rapid adhesion of PMNs to fibrinogen (fMLP); format: cell-based; conditions: Homo sapiens, 2 min, fMLP 100 nM; for inhibition at 10 µM: [cpd] 10 μM; for inhibition at 25 µM: [cpd] 25 μM; for inhibition at 50 µM: [cpd] 50 μM
Procedure: (§4) Adhesion was performed on purified integrin ligands and was evaluated as reported in Constantin G. et al., Immunity, 16, 759-769, 2000. Briefly, primary naïve lymphocytes, polymorphonuclear neutrophils (PMNs) or monocytes were isolated form healthy donors. In other experiments, murine autoreactive T cells were obtained from SJL mice immunized with PLP139-151 as described (Piccio L. et al., J. Immunol, 168, 1940-1949, 2002). Cells were resuspended at 4×10^6/ml in PBS, CaCl2, MgCl2 1 mM, 10% FCS, pH 7.2. Adhesion assays were performed on eighteen well glass slides coated overnight at 4° C. with ligands for CR3 (fibrinogen) or LFA-1 (ICAM-1). 20 μl of cell suspension were added to the wells and stimulated at 37° C. with 5 μl of agonists prior to washing, fixation and computer-assisted enumeration of bound cells.
(§5) Integrin activation was measured as induction of rapid adhesion triggered by the classical chemoattractant N-formyl-L-methionyl-L-leucyl-phenylalanine (fMLP) (100 nM) or by the CC chemokine MIP3β (CCL19, 1 μM). PMNs and monocytes were triggered to adhere to fibrinogen (CR3 ligand); naive human lymphocytes or murine encephalitogenic T cells were triggered to adhere to ICAM-1 (LFA-1 ligand). Triggered adhesion was evaluated after 2 min of stimulation under static conditions. The cells were pretreated at 37° C. for 30-60 min with the indicated concentrations of the test compound. Results are expressed as percentage of inhibition over control (=100%) and are the mean of three experiments in the case of human leukocytes. Results are expressed as mean counts and are the mean counts ±S.D of three experiments and are the mean of three experiments in the case of murine encephalitogenic lymphocytes.
(§6) Integrin activation was measured as induction of rapid adhesion triggered by the “classical” chemoattractant fMLP (100 nM) or by the CC chemokine MIP3β (CCL19, 1 μM). PMNs were triggered to adhere to fibrinogen (CR3 ligand); lymphocytes were triggered to adhere to ICAM-1 (LFA-1 ligand).

lymphocytes [5] = assay: Chemokine-induced rapid adhesion of lymphocytes to ICAM-1 (MIP3β); format: cell-based; conditions: Homo sapiens, Lymphocyte, MIP3β 1 μM; for inhibition at 10 µM: [cpd] 10 μM, read-out: Inhibition of Adhesion (%) Lymphocytes (MIP3-β); for inhibition at 25 µM: [cpd] 25 μM; for inhibition at 25 µM / inhibition at 50 µM: read-out: Inhibition of Adhesion (%) Lymphocytes (MIP3-β) (converted); for inhibition at 50 µM: [cpd] 50 μM
Procedure: as §4, §5, §6

monocytes [6] = assay: Chemokine-induced rapid adhesion of monocytes to fibrinogen (fMLP); format: cell-based; conditions: Homo sapiens, Monocyte, fMLP 100 nM; for inhibition at 10 µM: [cpd] 10 μM; for inhibition at 25 µM: [cpd] 25 μM; for inhibition at 50 µM: [cpd] 50 μM
Procedure: as §4, §5

monocytes [7] = assay: Chemotaxis assay, monocytes (fMLP); format: cell-based; conditions: Homo sapiens, Monocyte, fMLP 10 nM, 2 h; for inhibition at 10 µM: [cpd] 10 μM; for inhibition at 25 µM: [cpd] 25 μM; for inhibition at 50 µM: [cpd] 50 μM
Procedure: as §1, §2, §3

[8] = tested on: encephalitogenic lymphocytes; assay: Chemokine-induced adhesion of murine encephalitogenic T cells to ICAM-1; format: cell-based, SJL mice; conditions: ICAM-1; for Chemokine-induced Adhesion in encephalitogenic lymphocytes, Mean counts ± S.D., in presence of MIP3-β stimulation: 1 μM CCL19 (MIP-3beta)
Procedure: as §4, §5
Chemokines trigger rapid arrest of lymphocytes in blood vessels through pertussis toxin-sensitive G protein coupled receptors. Rapid adhesion to purified ICAM-1 was measured in in vitro adhesion assays using control/untreated cells and lymphocytes treated with concentration between 5-50 μM for 1 h. Autoreactive lymphocytes were then stimulated with 1 μM CCL19 (MIP-3beta) for 3 min. […] These compounds were already efficient in blocking adhesion using a concentration of 5 μM for the cell treatment.

Compound	inhibition at 5 µM [1]	inhibition at 10 µM [1]	inhibition at 50 µM [1]	inhibition at 10 µM (lymphocytes [2])	inhibition at 25 µM (lymphocytes [2])	inhibition at 50 µM (lymphocytes [2])	inhibition at 10 µM (PMNs [3])	inhibition at 25 µM (PMNs [3])	inhibition at 50 µM (PMNs [3])	inhibition at 10 µM (PMNs [4])	inhibition at 25 µM (PMNs [4])	inhibition at 50 µM (PMNs [4])	inhibition at 10 µM (lymphocytes [5])	inhibition at 25 µM (lymphocytes [5])	inhibition at 50 µM (lymphocytes [5])	inhibition at 10 µM (monocytes [6])	inhibition at 25 µM (monocytes [6])	inhibition at 50 µM (monocytes [6])	inhibition at 10 µM (monocytes [7])	inhibition at 25 µM (monocytes [7])	other results
COc1ccc(-c2c3n(c4cc(OC)c(OC)cc24)CC(=O)NC3)cc1 [Example 66]	15%	33.7%	92.9%	57.5%	89.6%	87.7%	50%	77.8%	92.6%	6.1%	11.5%	17.2%	61.3%	68.1%	79%	11.3%	28.7%	40.4%	43.9%	74.4%	inhibition at 50 µM (monocytes [7]): 92.7%
CCOC(=O)CCc1[nH]c2cc(OC)c(OC)cc2c1-c1ccc(OC)cc1 [Example 22]	39.9%	61.3%	94.7%	47.9%	84.6%	94.7%	56.9%	88.7%	97.8%	2.6%	13.8%	32.6%	65%	95.6%	97.1%	9.5%	29.6%	42.6%	23.7%	80.1%	Chemokine-induced Adhesion in encephalitogenic lymphocytes, Mean counts ± S.D., in presence of MIP3-β stimulation ([8]; [cpd] 10 μM): 74.1 ± 6.4; Adhesion in encephalitogenic lymphocytes, Mean counts ± S.D., in absence of MIP3-β stimulation ([8]; [cpd] 10 μM): 44.2 ± 5.7; Chemokine-induced Adhesion in encephalitogenic lymphocytes, Mean counts ± S.D., in presence of MIP3-β stimulation ([8]; [cpd] 50 μM): 48.0 ± 6.4; inhibition at 50 µM (monocytes [7]): 96.4%
COc1cc2[nH]c(-c3nnc[nH]3)c(-c3ccccc3)c2cc1OC [Example 58]	40.7%	49.5%	95.6%	49.3%	82.9%	92.2%	53.9%	87.5%	97.9%	33.1%	45%	61.4%	92.1%	93.9%	94.7%	6.8%	10.6%	16.6%	51.7%	87.5%	Chemokine-induced Adhesion in encephalitogenic lymphocytes, Mean counts ± S.D., in presence of MIP3-β stimulation ([8]; [cpd] 10 μM): 73.2 ± 5.5; Adhesion in encephalitogenic lymphocytes, Mean counts ± S.D., in absence of MIP3-β stimulation ([8]; [cpd] 10 μM): 48.7 ± 6.5; Chemokine-induced Adhesion in encephalitogenic lymphocytes, Mean counts ± S.D., in presence of MIP3-β stimulation ([8]; [cpd] 50 μM): 46.8 ± 4.7; Adhesion in encephalitogenic lymphocytes, Mean counts ± S.D., in absence of MIP3-β stimulation ([8]; [cpd] 50 μM): 19.8 ± 5.8; inhibition at 50 µM (monocytes [7]): 97.8%
COc1ccc(-c2c(C#N)n(CCCN(C)C)c3cc(OC)c(OC)cc23)cc1 [Example 55]	7.6%	12.4%	96.4%	43.7%	84.2%	91.2%	79.4%	94.2%	96.8%	8.4%	19%	27.4%	80%	91.9%	97%	7.7%	38.5%	97.9%	54.6%	89.2%	Chemokine-induced Adhesion in encephalitogenic lymphocytes, Mean counts ± S.D., in presence of MIP3-β stimulation ([8]; [cpd] 10 μM): 98.3 ± 13.7; Adhesion in encephalitogenic lymphocytes, Mean counts ± S.D., in absence of MIP3-β stimulation ([8]; [cpd] 10 μM): 53.5 ± 3.5; Chemokine-induced Adhesion in encephalitogenic lymphocytes, Mean counts ± S.D., in presence of MIP3-β stimulation ([8]; [cpd] 50 μM): 46.9 ± 6.2; Adhesion in encephalitogenic lymphocytes, Mean counts ± S.D., in absence of MIP3-β stimulation ([8]; [cpd] 50 μM): 13.2 ± 3.7; inhibition at 50 µM (monocytes [7]): 92.9%
